# Reference: article PMC3198402 (PLoS ONE, 2011)
# Where no end group is shown, it is not given here.
# Target: HLA-A*02:01 (Homo sapiens, UniProt P04439, D140Y/D185E/D98H/E176V/E277Q/G131W/G231S/I119V/I121R/I166T/I218V/L300P/L318F/N151K/N90K/P208A/P217A/Q86G/Q94H/R138H/R169H/T345S)
# Test: biochemical
# Assay type: binding
row,Sequence,Kd
1,SMVNGVVKL [Peptide 14605],25 nM
2,ILTDGPERV [Peptide 14602],4 nM
3,PLNEGIMAV [Peptide 14600],48 nM
4,YMPSVVETL [Peptide 14607],1 nM
5,TLYAVATTV [Peptide 14606],1 nM
6,VLNPYMPTV [Peptide 14604],1 nM
7,SMVNGVVRL [Peptide 14599],2 nM
8,KMDIGVPLL [Peptide 14598],1 nM
9,LLLTLLATV [Peptide 14597],43 nM

# Target: HLA-A*24:03 (Homo sapiens, UniProt P04439, D101N/D140Y/D185E/E176V/F33S/G103R/G107R/I119L/I121M/I306V/K335N/L105A/L180Q/L300P/N151K/N90K/Q86E/Q94H/R106L/R138H/R89G/T104I/T345S/V100E/Y123F)
# Test: biochemical
# Assay type: binding
row,Sequence,Kd
1,WYMWLGARF [Peptide 14613],19 nM
2,GFMNEDHWF [Peptide 14622],17 nM
3,TYGWNIVKL [Peptide 14623],76 nM
4,WYGMEIRPL [Peptide 14612],119 nM
5,GFLNEDHWF [Peptide 14615],34 nM
6,MALVAFLRF [Peptide 14610],13 nM
